# Activity calls are given as the source filed them.
# Columns and labels:
# [1] = target: Botulinum neurotoxin type F (Clostridium botulinum, UniProt P30996); experiment: High-throughput multiplex microsphere dose response for inhibitors of toxin protease, specifically Botulinum neurotoxin light chain F protease, compounds from Cherry Pick 02.; format: functional; conditions: read-out: EC50_MICROM
# [2] = target: Prothrombin (Bos taurus, UniProt P00735); experiment: thrombin protease inhibitors – biochemical, fluorescence polarization, uHTS hits, dose response (AID 602369); format: functional
# [3] = target: 72 kDa type IV collagenase (Homo sapiens, UniProt P08253); experiment: Dose Response validation of uHTS RPN11 inhibitor hits using a MMP-2 Fluorescence assay.; format: functional
# [4] = target: T1, COUP transcription factor 2 (Homo sapiens, UniProt P24468); experiment: Luminescence-based cell-based high throughput dose response assay to identify inhibitors of COUP-TFII (NR2F2).; format: functional;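 note: HEK293 cells transiently cotransfected with COUP-TFII expression vector and reporter; luciferase reporter luminescence driven by COUP-TFII from the pX2-168 reporter plasmid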
# T1 sequence (P24468 whole entry): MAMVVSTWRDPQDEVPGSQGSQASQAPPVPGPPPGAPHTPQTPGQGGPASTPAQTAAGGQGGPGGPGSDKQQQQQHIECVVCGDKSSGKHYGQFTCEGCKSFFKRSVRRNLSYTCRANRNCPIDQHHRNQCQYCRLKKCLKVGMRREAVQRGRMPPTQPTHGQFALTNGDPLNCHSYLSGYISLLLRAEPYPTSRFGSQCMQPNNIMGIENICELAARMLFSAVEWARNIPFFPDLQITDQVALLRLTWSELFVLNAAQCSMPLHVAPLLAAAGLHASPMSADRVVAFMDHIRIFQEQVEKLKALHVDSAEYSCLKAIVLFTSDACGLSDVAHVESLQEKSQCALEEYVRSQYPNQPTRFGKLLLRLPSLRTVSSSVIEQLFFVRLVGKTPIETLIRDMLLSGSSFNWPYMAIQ
# [5] = target: Cystic fibrosis transmembrane conductance regulator/Golgi-associated PDZ and coiled-coil motif-containing protein (Homo sapiens, UniProt P13569+Q9HD26); experiment: potency against CAL PDZ-peptide interaction – biochemical, fluorescence polarization, Cerulean-tagged CAL PDZ, cherry-picks, dose response (AID 504773)
# [6] = target: Glucose-6-phosphate 1-dehydrogenase (Homo sapiens, UniProt P11413); experiment: inhibition of Homo sapiens G6PD, dose series – biochemical, fluorescence, selectivity assay for P. falciparum G6PD inhibitor project, dose response (AID 504792); format: functional
# [7] = target: Glutathione-S-transferase (Schistosoma japonicum, UniProt Q26513); experiment: GST-antibody interaction or FRET quenching – biochemical, TR-FRET, artefact control for Vif-APOBEC3G degradation inhibitor project, dose response (AID 1117362); format: functional
# [8] = target: T2, Histone-lysine N-methyltransferase NSD2 (Homo sapiens, UniProt O96028); format: biochemical
# T2 sequence (O96028 whole entry): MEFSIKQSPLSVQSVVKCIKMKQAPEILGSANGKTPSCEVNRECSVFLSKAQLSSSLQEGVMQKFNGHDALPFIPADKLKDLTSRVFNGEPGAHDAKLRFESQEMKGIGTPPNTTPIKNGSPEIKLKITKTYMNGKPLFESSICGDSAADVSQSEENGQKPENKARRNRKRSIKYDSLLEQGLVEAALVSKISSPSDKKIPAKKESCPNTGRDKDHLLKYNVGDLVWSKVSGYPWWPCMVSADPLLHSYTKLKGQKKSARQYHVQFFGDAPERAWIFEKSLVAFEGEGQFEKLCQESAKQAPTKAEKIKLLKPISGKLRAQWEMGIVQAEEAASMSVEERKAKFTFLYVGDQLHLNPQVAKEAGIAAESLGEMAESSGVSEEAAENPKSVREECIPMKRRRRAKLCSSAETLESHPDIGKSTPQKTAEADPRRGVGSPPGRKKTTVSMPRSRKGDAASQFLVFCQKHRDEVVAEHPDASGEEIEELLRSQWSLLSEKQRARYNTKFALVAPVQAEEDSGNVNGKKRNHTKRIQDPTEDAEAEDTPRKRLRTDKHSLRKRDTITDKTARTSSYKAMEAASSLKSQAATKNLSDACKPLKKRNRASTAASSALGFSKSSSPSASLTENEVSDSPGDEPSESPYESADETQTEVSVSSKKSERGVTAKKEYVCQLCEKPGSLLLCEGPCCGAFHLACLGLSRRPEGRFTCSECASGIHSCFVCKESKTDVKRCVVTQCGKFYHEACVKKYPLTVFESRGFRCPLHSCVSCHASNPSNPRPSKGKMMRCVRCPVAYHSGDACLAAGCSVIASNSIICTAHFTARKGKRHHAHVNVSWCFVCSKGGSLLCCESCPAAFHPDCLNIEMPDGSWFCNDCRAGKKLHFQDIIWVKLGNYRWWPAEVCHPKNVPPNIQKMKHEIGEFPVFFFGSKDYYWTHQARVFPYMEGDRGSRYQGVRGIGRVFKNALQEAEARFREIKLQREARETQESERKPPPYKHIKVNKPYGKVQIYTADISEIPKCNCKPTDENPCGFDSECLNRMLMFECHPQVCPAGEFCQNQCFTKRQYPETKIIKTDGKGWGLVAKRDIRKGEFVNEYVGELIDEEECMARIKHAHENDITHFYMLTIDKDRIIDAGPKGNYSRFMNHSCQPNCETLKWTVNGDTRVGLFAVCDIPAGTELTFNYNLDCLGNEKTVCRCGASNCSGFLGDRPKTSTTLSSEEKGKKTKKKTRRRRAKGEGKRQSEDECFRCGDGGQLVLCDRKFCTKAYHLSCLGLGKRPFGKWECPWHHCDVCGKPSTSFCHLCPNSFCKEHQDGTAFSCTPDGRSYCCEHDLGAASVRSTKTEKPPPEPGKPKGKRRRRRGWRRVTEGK
# [9] = viability loss in THP-1 monocytes – THP-1 cells, cytotoxicity control for Vif-APOBEC3G degradation inhibitor project, dose response (AID 1117359); format: functional; conditions: THP-1
# [10] = target: Nonstructural protein 1 (Influenza A virus, UniProt Q194T2); format: functional, Influenza A virus (A/California/07/2009(H1N1))
# [11] = HGIII-sPLA2 enzyme inhibition potency – biochemical, QFRET, IC50, dose response (AID 743457);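 note: green fluorescence rise as the enzyme cleaves BODIPY PC-A2 in liposomes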
# [12] = target: Protein Tat (Human immunodeficiency virus type 1 group M subtype B (isolate HXB2)(HIV-1), UniProt P04608); format: functional;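 note: tat binding to TAR RNA read out by fluorescence polarization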
# [13] = target: Heat shock protein HSP 90-alpha (Homo sapiens, UniProt P07900); format: functional, organism-based
# [14] = target: 26S proteasome non-ATPase regulatory subunit 14 (Homo sapiens, UniProt O00487); experiment: inhibition of proteasome subunit RPN11 – biochemical, fluorescence polarization, uHTS hits, confirmation (AID 602368); format: functional
# [15] = target: Matrix metalloproteinase-14 (Homo sapiens, UniProt P50281); experiment: Dose Response confirmation of uHTS hits for a small molecule inhibitors of MT1-MMP activation in a fluorescence assay set 1.; format: functional
# [16] = target: Wee1-like protein kinase (Homo sapiens, UniProt P30291); experiment: HeLa cell cycle G2/M accumulation – FACS, mechanism study for Wee1 degradation inhibitor project, late-stage follow-up, panel member Wee1 Degradation (AID 2088)
# [17] = target: G2/mitotic-specific cyclin-B1 (Homo sapiens, UniProt P14635); experiment: HeLa cell cycle G2/M accumulation – FACS, mechanism study for Wee1 degradation inhibitor project, late-stage follow-up, panel member Cyclin B Degradation (AID 2088)
# [18] = target: Neurotensin receptor type 1 (Homo sapiens, UniProt P30989); format: functional;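 note: Image-based confirmatory dose-response assay measuring agonist activity at NTR1; NTR1-expressing U2OS osteosarcoma cells imaged for beta-arrestin GFP spot formation; agonist potency where compounds increase beta-arrestin recruitment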
# [19] = system: INS1; experiment: INS-1E survival protection against cytokine death – cell-based, luminescence, retest, dose response (AID 449756); format: functional; conditions: Rattus norvegicus;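 note: cell death triggered by IL-1 beta plus TNF-alpha plus IFN-gamma mixture; protective hits raise ATP signal compared with cytokine alone wells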
# [20] = target: T3, Ubiquitin-conjugating enzyme E2 N (Homo sapiens, UniProt P61088); format: functional;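 note: Dose-response confirmation in a TR-FRET assay detecting UBC13-driven polyubiquitin chain formation, inhibition measured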
# T3 sequence (P61088 whole entry): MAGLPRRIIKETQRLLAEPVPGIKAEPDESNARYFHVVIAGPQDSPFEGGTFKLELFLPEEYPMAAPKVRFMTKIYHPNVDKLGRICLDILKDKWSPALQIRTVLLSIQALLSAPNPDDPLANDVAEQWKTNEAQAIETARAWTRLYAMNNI
# [21] = Luminescence Cell-Based Dose Retest to Confirm Inhibitors of Cancer Stem Cells. [Related pubchem assays (depositor defined):AID2717, AID2721]; format: functional; conditions: Homo sapiens
# [22] = target: Protein Rev (Human immunodeficiency virus type 1 group M subtype B (isolate HXB2)(HIV-1), UniProt P04618); experiment: blockers of HIV Rev/RRE RNA complex – biochemical, fluorescence polarization, HIV-1, dose response (AID 434976); design: species or system Human immunodeficiency virus 1
# [23] = target: Female germline-specific tumor suppressor gld-1 (Caenorhabditis elegans, UniProt Q17339); experiment: blockers of GLD-1/TGE RNA complex formation – biochemical, fluorescence polarization, C. elegans, dose response (AID 2802);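 note: fluorescence polarization of labeled TGE RNA bound by purified gld-1 protein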
# Sequence of Female germline-specific tumor suppressor gld-1 (Q17339 whole entry): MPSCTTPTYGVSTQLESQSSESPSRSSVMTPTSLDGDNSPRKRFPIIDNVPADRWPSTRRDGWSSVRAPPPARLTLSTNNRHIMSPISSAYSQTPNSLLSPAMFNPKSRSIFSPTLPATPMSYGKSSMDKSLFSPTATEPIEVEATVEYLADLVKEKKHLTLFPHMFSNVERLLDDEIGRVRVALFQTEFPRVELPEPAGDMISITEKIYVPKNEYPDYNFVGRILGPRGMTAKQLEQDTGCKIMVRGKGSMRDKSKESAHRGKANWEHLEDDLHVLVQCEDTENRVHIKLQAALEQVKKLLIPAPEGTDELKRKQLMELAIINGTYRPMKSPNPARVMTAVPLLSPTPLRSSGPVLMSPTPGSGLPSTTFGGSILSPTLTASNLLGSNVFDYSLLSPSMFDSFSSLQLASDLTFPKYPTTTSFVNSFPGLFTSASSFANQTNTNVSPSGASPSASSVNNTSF
# Sequence of G2/mitotic-specific cyclin-B1 (P14635 whole entry): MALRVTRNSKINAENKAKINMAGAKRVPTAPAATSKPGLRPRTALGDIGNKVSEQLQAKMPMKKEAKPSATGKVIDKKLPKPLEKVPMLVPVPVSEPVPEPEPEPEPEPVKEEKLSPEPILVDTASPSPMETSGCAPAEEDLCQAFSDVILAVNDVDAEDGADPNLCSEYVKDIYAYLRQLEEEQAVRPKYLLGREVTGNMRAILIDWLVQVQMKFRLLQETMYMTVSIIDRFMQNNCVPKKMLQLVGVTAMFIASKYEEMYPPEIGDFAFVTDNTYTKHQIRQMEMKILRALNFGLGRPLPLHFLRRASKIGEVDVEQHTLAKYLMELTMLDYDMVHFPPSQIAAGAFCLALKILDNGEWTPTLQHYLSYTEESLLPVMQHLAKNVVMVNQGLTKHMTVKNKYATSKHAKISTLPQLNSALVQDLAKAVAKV
# Sequence of 72 kDa type IV collagenase (P08253 whole entry): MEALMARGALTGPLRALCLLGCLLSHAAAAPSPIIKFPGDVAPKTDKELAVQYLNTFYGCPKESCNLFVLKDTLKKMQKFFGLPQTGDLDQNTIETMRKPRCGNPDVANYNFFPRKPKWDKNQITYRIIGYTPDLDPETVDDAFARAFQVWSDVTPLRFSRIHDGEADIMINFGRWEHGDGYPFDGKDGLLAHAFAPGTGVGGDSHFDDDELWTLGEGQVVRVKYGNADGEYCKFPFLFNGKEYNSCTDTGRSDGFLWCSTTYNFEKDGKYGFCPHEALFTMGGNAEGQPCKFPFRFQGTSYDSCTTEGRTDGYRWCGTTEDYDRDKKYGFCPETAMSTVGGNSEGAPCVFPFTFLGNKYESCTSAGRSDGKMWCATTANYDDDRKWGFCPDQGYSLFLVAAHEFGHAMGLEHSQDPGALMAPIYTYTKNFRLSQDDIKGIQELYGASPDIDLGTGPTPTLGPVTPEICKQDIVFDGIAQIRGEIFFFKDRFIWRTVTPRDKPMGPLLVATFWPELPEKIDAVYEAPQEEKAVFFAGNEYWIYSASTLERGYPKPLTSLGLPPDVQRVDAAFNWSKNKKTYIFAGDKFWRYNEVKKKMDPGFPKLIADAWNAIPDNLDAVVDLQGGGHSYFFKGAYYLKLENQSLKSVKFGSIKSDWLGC
# Sequence of Nonstructural protein 1 (Q194T2 whole entry): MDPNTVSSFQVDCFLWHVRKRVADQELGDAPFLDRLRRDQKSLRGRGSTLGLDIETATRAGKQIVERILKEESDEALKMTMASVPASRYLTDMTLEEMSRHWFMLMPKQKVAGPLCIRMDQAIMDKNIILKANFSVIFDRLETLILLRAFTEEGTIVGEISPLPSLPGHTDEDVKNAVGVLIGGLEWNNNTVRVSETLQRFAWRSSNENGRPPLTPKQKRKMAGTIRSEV
# Sequence of Wee1-like protein kinase (P30291 whole entry): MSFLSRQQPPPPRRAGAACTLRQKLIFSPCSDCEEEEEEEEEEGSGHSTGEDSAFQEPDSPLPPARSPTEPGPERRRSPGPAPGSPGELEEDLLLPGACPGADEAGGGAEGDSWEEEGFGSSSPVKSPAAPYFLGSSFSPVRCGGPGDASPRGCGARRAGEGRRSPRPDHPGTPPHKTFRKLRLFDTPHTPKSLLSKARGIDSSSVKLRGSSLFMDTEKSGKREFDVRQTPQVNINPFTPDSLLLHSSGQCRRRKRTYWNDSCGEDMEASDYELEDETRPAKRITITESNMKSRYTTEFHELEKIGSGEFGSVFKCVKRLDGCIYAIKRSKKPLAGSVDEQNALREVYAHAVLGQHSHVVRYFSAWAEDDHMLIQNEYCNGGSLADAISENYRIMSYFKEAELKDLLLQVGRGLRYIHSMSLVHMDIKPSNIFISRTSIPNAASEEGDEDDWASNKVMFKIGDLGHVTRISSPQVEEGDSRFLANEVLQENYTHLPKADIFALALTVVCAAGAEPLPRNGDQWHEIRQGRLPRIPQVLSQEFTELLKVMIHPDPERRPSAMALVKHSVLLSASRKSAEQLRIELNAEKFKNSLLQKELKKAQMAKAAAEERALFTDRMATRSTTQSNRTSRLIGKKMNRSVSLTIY
# Sequence of Glutathione-S-transferase (Q26513 whole entry): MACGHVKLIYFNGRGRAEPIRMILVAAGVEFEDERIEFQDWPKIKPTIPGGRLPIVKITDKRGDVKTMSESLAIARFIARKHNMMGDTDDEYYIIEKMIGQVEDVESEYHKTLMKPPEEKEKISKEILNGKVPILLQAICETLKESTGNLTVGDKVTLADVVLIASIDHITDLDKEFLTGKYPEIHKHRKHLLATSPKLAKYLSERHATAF
# Sequence of Protein Tat (P04608 whole entry): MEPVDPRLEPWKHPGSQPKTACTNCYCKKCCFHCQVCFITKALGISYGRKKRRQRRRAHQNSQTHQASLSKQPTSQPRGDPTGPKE
# Sequence of Cystic fibrosis transmembrane conductance regulator/Golgi-associated PDZ and coiled-coil motif-containing protein (P13569 whole entry, other chains not shown): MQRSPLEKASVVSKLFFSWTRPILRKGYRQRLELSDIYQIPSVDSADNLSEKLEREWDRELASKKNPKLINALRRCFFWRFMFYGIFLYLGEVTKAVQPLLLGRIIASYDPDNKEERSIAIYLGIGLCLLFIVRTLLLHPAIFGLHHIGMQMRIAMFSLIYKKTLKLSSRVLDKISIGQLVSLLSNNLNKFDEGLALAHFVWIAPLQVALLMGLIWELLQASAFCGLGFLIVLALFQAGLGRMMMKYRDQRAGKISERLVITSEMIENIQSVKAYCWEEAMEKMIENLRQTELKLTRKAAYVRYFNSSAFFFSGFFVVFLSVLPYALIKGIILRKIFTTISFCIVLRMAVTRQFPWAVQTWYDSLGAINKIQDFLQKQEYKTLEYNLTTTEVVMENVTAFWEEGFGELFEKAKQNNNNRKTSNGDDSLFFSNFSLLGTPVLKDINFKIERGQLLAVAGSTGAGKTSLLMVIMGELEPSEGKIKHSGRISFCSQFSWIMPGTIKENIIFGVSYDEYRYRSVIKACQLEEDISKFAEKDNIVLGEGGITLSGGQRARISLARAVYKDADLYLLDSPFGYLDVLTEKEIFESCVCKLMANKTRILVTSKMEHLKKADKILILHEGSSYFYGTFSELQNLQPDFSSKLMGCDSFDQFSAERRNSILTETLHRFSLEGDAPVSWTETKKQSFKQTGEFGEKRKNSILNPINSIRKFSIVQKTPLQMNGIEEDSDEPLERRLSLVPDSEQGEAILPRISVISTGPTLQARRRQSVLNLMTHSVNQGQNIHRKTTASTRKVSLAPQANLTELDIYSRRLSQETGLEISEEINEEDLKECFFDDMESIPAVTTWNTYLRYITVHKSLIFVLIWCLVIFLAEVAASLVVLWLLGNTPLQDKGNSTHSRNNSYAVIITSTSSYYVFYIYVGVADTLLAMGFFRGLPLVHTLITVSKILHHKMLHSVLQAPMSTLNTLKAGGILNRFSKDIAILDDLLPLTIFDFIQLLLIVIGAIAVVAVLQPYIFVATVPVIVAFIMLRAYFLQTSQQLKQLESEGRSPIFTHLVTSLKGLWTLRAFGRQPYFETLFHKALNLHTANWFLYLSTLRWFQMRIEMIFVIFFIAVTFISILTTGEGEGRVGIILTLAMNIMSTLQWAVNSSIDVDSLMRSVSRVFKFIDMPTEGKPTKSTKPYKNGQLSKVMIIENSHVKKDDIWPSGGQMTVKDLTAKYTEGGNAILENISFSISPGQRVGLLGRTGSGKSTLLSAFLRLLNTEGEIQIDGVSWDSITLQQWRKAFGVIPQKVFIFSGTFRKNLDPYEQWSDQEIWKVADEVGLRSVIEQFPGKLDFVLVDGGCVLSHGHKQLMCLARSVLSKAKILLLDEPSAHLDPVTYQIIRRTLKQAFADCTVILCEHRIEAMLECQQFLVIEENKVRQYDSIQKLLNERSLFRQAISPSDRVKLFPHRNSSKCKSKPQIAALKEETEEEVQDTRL
# Sequence of Glucose-6-phosphate 1-dehydrogenase (P11413 whole entry): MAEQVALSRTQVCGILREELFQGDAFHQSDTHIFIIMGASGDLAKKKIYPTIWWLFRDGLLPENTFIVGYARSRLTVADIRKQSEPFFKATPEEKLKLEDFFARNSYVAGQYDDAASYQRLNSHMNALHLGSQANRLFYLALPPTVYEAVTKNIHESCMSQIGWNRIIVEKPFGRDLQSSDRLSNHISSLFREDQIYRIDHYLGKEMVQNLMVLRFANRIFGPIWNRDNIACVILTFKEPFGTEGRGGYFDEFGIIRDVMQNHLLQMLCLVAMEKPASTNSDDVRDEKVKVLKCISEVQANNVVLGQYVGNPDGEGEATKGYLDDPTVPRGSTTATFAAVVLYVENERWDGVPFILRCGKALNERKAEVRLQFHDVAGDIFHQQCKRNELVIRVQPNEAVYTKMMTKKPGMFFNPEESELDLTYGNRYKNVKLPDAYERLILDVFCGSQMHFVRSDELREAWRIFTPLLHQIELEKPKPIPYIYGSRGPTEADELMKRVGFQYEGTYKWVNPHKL
# Sequence of Protein Rev (P04618 whole entry): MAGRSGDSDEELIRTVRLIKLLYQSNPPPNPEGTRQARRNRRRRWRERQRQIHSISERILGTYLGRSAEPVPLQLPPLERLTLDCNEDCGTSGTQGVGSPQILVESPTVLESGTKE
smiles,measurement,setting,value
COc1cc(N(C)C)ccc1C=c1c2ccccc2n2c1cc(-c1ccccc1)[n+]2C,EC50,[1],> 20 µM (inactive)
same,IC50,[2],11.8 µM (active)
same,IC50,[3],> 100 µM (inactive)
same,IC50,[4],4.89 µM (active)
same,AC50,[5],39.9 µM (active)
same,IC50,[6],> 80 µM (inactive)
same,IC50,[7],3.69 µM (active)
same,AC50,[8],3.07 µM (active)
same,CC50,[9],220 nM (active)
same,IC50,[10],3.2 µM (active)
same,IC50,[11],19.2 µM (inactive)
same,IC50,[12],> 100 µM (active)
same,AC50,[13],7.6 µM (active)
same,IC50,[14],24.9 µM (active)
same,IC50,[15],14.6 µM (active)
CC(C)c1ccc(NC(=O)CCCOc2cc(=O)n(C)c3ccccc23)cc1,EC50,[16],> 49.7 µM (inactive)
same,EC50,[17],> 49.7 µM (inactive)
CC(C)C[C@H]1CN=C(Nc2ccccc2)N1CC1CCC(C(C)(C)C)CC1 (stereo partly drawn),EC50,[18],15.7 µM (active)
same,AC50,[19],6.54 µM (active)
same,IC50,[20],> 20 µM (inactive)
same,AC50,[21],5.02 µM (active)
Nc1c(-c2cccc([N+](=O)[O-])c2)nc2ccccn12,IC50,[22],> 75.5 µM (not active)
same,IC50,[23],7.64 µM (active)
